Drawing on patent US12673961B2 (Agios Pharmaceuticals, Inc., priority 2022, dated 2026), this text covers AC50 for 24 compounds.

The first experiment has as its target T1, human PAH with the R408W mutation (Homo sapiens, UniProt P00439, R408W).
T1 construct: expressed in transfected cells
T1 sequence (P00439 1-452 R408W): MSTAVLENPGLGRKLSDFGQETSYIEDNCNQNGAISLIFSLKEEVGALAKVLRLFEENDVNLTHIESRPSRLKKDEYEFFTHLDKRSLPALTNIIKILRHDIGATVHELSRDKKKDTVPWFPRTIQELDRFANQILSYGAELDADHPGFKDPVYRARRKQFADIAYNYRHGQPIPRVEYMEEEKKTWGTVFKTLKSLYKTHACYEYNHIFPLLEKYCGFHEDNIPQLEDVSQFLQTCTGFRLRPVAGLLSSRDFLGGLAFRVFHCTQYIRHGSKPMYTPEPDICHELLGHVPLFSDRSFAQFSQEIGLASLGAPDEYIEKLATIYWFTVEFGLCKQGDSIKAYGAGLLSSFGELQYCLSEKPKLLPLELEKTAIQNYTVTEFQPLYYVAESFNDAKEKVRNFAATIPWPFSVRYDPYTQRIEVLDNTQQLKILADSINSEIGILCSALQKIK
The experiment in a line: Cell Based Phenylalanine Flux Assay.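 Further: Ten-point dose curve from 2-fold serial dilutions, run in duplicate at 0.5% DMSO final, tracer step used 20 µM sepiapterin and 800 µM labeled phenylalanine.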 The conditions noted are these: A375 cells expressing R408W PAH; 24 hrs with compound, then 20 μM sepiapterin and 800 μM 13C9,15N-Phenylalanine for 4 hours; 13C-Tyrosine in media by LC-MS; average where tested multiple times. Further details: scale not given here.
Broadly, the AC50 is the concentration at which the activity in the assay is half-maximal. For the compound `CC(C)c1cccn2nc(C3c4nc[nH]c4CCN3c3ncccn3)cc12` (stereo not drawn), the AC50 entry is reported as “E, E”.

The same experiment, now with this note: A375 cells expressing R408W PAH; 24 hrs with compound, then 20 μM sepiapterin and 800 μM 13C9,15N-Phenylalanine for 4 hours; 13C-Tyrosine in media by LC-MS; average where tested multiple times; read-out: AC50.
Consider `Clc1cccn2nc([C@@H]3c4nc[nH]c4CCN3c3nnc(-c4ncccn4)o3)cc12` (single isomer, unassigned), for which the half-maximal activity concentration (AC50) was 1 to 5 µM.
On to `O=C(c1nnc(N2CCOCC2)o1)N1CCc2[nH]cnc2[C@H]1c1cc2ccccn2n1` (single isomer, unassigned), for which the AC50 lay in the range of 1 to 5 µM.
`CC(C)(O)c1noc(C(=O)N2CCc3[nH]cnc3[C@H]2c2cc3ccccn3n2)n1` (single isomer, unassigned): the AC50 is more than 5 µM.

The same experiment, now with this note: A375 cells expressing human R408W PAH; 24 hrs compound incubation; 13C-Tyrosine by LC-MS; average where tested multiple times; read-out: AC50.
Consider `Cn1ccc(-c2nnc(C(=O)N3CCc4[nH]cnc4[C@@H]3c3cc4c(C(F)(F)F)cccn4n3)o2)n1` (single isomer, unassigned) [Example 837], for which the AC50 was more than 5 µM.
For `COc1ccc(-c2nnc(C(=O)N3CCc4[nH]cnc4[C@H]3c3cc4c(Cl)cccn4n3)o2)nc1` [Example 1299, (S)-(4-(4-chloropyrazolo [1,5-a]pyridin-2-yl)-6,7-dihydro-1H-imidazo[4,5-c]pyridin-5(4H)-yl)(5-(5-methoxypyridin-2-yl)-1,3,4-oxadiazol-2-yl)methanone], the AC50 was less than 0.5 µM.
Regarding `Cc1c(-c2nnc(C(=O)N3CCc4[nH]cnc4[C@H]3c3cc4c(Cl)cccn4n3)o2)cnn1C` [Example 1214, (S)-(4-(4-chloropyrazolo [1,5-a]pyridin-2-yl)-6,7-dihydro-1H-imidazo[4,5-c]pyridin-5(4H)-yl)(5-(1,5-dimethyl-1H-pyrazol-4-yl)-1,3,4-oxadiazol-2-yl)methanone], the AC50 is less than 0.5 µM.
As for `Cc1ccc2cc([C@H]3c4nc[nH]c4CCN3C(=O)c3nnc(C(C)(C)F)o3)nn2c1` [Example 1170, (R)-(5-(2-fluoropropan-2-yl)-1,3,4-oxadiazol-2-yl)(4-(6-methylpyrazolo[1,5-a]pyridin-2-yl)-6,7-dihydro-1H-imidazo[4,5-c]pyridin-5(4H)-yl)methanone], the AC50 was more than 5 µM.
Regarding `Cc1cccc2cc([C@@H]3c4nc[nH]c4CCN3C(=O)c3nnc(-c4cnn(C)c4)o3)nn12` [Example 800, (S)-(5-(1-methyl-1H-pyrazol-4-yl)-1,3,4-oxadiazol-2-yl)(4-(7-methylpyrazolo[1,5-a]pyridin-2-yl)-6,7-dihydro-1H-imidazo[4,5-c]pyridin-5(4H)-yl)methanone], the AC50 fell in the range of 0.5 to 1 µM.
In the case of `Cn1nc(C(F)F)cc1C(=O)N1CCc2[nH]cnc2[C@H]1c1cc2cccc(C(F)(F)F)n2n1` [Example 1386, (S)-(3-(difluoromethyl)-1-methyl-1H-pyrazol-5-yl)(4-(7-(trifluoromethyl)pyrazolo [1,5-a]pyridin-2-yl)-6,7-dihydro-1H-imidazo[4,5-c]pyridin-5(4H)-yl)methanone], the AC50 lay in the range of 0.5 to 1 µM.
Regarding `Cc1ccc2cc([C@@H]3c4nc[nH]c4CCN3C(=O)c3nnc(C(C)(C)C)o3)nn2c1` [Example 1110, (S)-(5-(tert-butyl)-1,3,4-oxadiazol-2-yl)(4-(6-methylpyrazolo[1,5-a]pyridin-2-yl)-6,7-dihydro-1H-imidazo[4,5-c]pyridin-5(4H)-yl)methanone], the AC50 is 0.5 to 1 µM.

Still in this experiment, the particulars now being: A375 cells expressing human R408W PAH; 24 hrs with compound, then sepiapterin and 13C9,15N-Phenylalanine for 4 hours; 13C-Tyrosine by LC-MS; average where tested multiple times; read-out: AC50.
Regarding `CC(C)(O)c1ncc(C(=O)N2CCc3[nH]cnc3[C@H]2c2cc3c(Cl)cccn3n2)o1` [Example 2216], the AC50 is 0.5 to 1 µM.
Take `Cc1cc(-c2nnc(C(=O)N3CCc4[nH]cnc4[C@H]3c3cc4cccc(F)n4n3)o2)nn1C` [Example 1565, (S)-(5-(1,5-dimethyl-1H-pyrazol-3-yl)-1,3,4-oxadiazol-2-yl)(4-(7-fluoropyrazolo[1,5-a]pyridin-2-yl)-6,7-dihydro-1H-imidazo[4,5-c]pyridin-5(4H)-yl)methanone]: the AC50 was less than 0.5 µM.
As to `O=C(c1nnc(C2CC2)o1)N1CCc2[nH]cnc2[C@H]1c1cc2c(OC(F)(F)F)cccn2n1` [Example 1724, (S)-(5-cyclopropyl-1,3,4-oxadiazol-2-yl)(4-(4-(trifluoromethoxy)pyrazolo [1,5-a]pyridin-2-yl)-6,7-dihydro-1H-imidazo[4,5-c]pyridin-5(4H)-yl)methanone], the AC50 is less than 0.5 µM.
Regarding `c1ccc2oc(N3CCc4[nH]cnc4[C@H]3c3cc4ccccn4n3)nc2c1` [Example 1577, (S)-2-(4-(pyrazolo[1,5-a]pyridin-2-yl)-6,7-dihydro-1H-imidazo[4,5-c]pyridin-5(4H)-yl)benzo[d]oxazole], the AC50 lay within 0.5 to 1 µM.
Take `Cc1cccnc1-c1nnc(N2CCc3[nH]cnc3[C@H]2c2cc3c(Cl)cccn3n2)o1` [Example 2287]: the concentration at half-maximal activity (AC50) is less than 0.5 µM.
In the case of `O=C(c1nnc(C2CC(F)(F)C2)o1)N1CCc2[nH]cnc2[C@H]1c1cc2c(Cl)cccn2n1` [Example 1587, (S)-(4-(4-chloropyrazolo [1,5-a]pyridin-2-yl)-6,7-dihydro-1H-imidazo[4,5-c]pyridin-5(4H)-yl)(5-(3,3-difluorocyclobutyl)-1,3,4-oxadiazol-2-yl)methanone], the AC50 is less than 0.5 µM.
The same measure, in the same setting: under `Cc1cccc2cc([C@H]3c4nc[nH]c4CCN3C(=O)c3ocnc3C3CC3)nn12` [Example 2071, (R)-(4-cyclopropyloxazol-5-yl)(4-(7-methylpyrazolo[1,5-a]pyridin-2-yl)-1,4,6,7-tetrahydro-5H-imidazo[4,5-c]pyridin-5-yl)methanone] stands more than 5 µM; under `O=C(c1nnc(-c2cnccn2)o1)N1CCc2[nH]cnc2[C@H]1c1cc2c(C3CC3)cccn2n1` [Example 1857, (S)-(4-(4-cyclopropylpyrazolo [1,5-a]pyridin-2-yl)-1,4,6,7-tetrahydro-5H-imidazo[4,5-c]pyridin-5-yl)(5-(pyrazin-2-yl)-1,3,4-oxadiazol-2-yl)methanone], 0.5 to 1 µM; under `CC(C)c1cccn2nc([C@H]3c4nc[nH]c4CCN3C(=O)c3nnc(-c4ccn(C(F)F)n4)o3)cc12` [Example 1982, (R)-(5-(1-(difluoromethyl)-1H-pyrazol-3-yl)-1,3,4-oxadiazol-2-yl)(4-(4-isopropylpyrazolo[1,5-a]pyridin-2-yl)-1,4,6,7-tetrahydro-5H-imidazo[4,5-c]pyridin-5-yl)methanone], more than 5 µM.
Regarding `O=C(c1nnc(C2CCC2)o1)N1CCc2[nH]cnc2[C@H]1c1cc2c(C(F)(F)F)cccn2n1` [Example 1519, (S)-(5-cyclobutyl-1,3,4-oxadiazol-2-yl)(4-(4-(trifluoromethyl)pyrazolo [1,5-a]pyridin-2-yl)-6,7-dihydro-1H-imidazo[4,5-c]pyridin-5(4H)-yl)methanone], the half-maximal activity concentration (AC50) is less than 0.5 µM.
Consider `Fc1cccc(F)c1-c1nnc(N2CCc3[nH]cnc3[C@H]2c2cc3c(F)cccn3n2)o1` [Example 1865, (S)-2-(2,6-difluorophenyl)-5-(4-(4-fluoropyrazolo[1,5-a]pyridin-2-yl)-1,4,6,7-tetrahydro-5H-imidazo[4,5-c]pyridin-5-yl)-1,3,4-oxadiazole], for which the AC50 is less than 0.5 µM.
Still for that read-out and setting: under `CC(C)c1nnc(N2CCc3[nH]cnc3[C@H]2c2cc3c(C(F)F)cccn3n2)o1` [Example 2321, (S)-2-(4-(4-(difluoromethyl)pyrazolo[1,5-a]pyridin-2-yl)-1,4,6,7-tetrahydro-5H-imidazo [4,5-c]pyridin-5-yl)-5-isopropyl-1,3,4-oxadiazole] stands less than 0.5 µM; under `CC(C)(F)c1ncc(C(=O)N2CCc3[nH]cnc3[C@H]2c2cc3c(F)cccn3n2)o1` [Example 2064, (S)-(2-(2-fluoropropan-2-yl)oxazol-5-yl)(4-(4-fluoropyrazolo[1,5-a]pyridin-2-yl)-1,4,6,7-tetrahydro-5H-imidazo[4,5-c]pyridin-5-yl)methanone], less than 0.5 µM.
